Data: ChEMBL document CHEMBL1138543, “Design and synthesis of calpain inhibitory 6-pyridone 2-carboxamide derivatives” (Eur J Med Chem, 2009)

Biological target: T1, Calpain-1 catalytic subunit (Homo sapiens, UniProt P07384)
T1 sequence (P07384 whole entry): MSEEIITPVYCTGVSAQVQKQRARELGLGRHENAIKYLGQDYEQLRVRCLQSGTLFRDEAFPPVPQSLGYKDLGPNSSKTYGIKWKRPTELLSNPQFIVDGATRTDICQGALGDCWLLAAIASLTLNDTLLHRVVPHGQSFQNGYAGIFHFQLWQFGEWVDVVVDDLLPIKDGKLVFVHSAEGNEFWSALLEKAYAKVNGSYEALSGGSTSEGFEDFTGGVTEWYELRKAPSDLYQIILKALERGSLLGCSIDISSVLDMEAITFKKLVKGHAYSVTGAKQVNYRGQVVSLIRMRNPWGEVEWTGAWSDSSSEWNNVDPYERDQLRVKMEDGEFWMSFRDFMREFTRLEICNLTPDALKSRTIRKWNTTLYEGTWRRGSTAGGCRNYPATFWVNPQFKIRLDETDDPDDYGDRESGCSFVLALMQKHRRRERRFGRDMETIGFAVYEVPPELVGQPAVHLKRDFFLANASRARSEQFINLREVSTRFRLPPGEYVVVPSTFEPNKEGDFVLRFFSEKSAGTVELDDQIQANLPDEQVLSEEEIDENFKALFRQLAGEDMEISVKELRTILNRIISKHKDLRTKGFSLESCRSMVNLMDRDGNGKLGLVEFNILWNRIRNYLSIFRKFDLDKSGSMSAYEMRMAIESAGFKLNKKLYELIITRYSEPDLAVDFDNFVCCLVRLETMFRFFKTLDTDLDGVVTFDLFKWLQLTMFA
Test: Inhibition of human erythrocytes mu-calpain by spectrofluorimeter

| IC50 [µM] | SMILES |
| --- | --- |
| 22.1 | Cc1ccc(=O)[nH]c1C(=O)N[C@@H](Cc1ccccc1)C(=O)C(=O)NCc1ccc(F)cc1 |
| 2.81 | Cc1ccc(=O)[nH]c1C(=O)N[C@@H](Cc1ccccc1)C(=O)C(N)=O |
| 35.3 | COc1ccc(CNC(=O)C(=O)[C@H](Cc2ccccc2)NC(=O)c2[nH]c(=O)ccc2C)cc1OC |
| 64.6 | Cc1ccc(=O)[nH]c1C(=O)N[C@@H](Cc1ccccc1)C(=O)C(=O)NCc1ccccc1 |
| 91.4 | CNC(=O)C(=O)[C@H](Cc1ccccc1)NC(=O)c1[nH]c(=O)ccc1C |
| 34 | Cc1ccc(=O)[nH]c1C(=O)N[C@@H](Cc1ccccc1)C(=O)C(=O)NCCc1ccccn1 |
| 40.2 | CCNC(=O)C(=O)[C@H](Cc1ccccc1)NC(=O)c1[nH]c(=O)ccc1C |
| 6.19 | COc1ccc(CCNC(=O)C(=O)[C@H](Cc2ccccc2)NC(=O)c2[nH]c(=O)ccc2C)cc1 |
| 7.41 | Cc1ccc(=O)[nH]c1C(=O)N[C@@H](Cc1ccccc1)C(=O)C(=O)NCCc1ccccc1 |
| 6.19 | COc1ccc(CNC(=O)C(=O)[C@H](Cc2ccccc2)NC(=O)c2[nH]c(=O)ccc2C)cc1 |
| 84.8 | Cc1ccc(=O)[nH]c1C(=O)N[C@@H](Cc1ccccc1)C(=O)C(=O)NCc1ccccn1 |
| > 100 | Cc1ccc(=O)[nH]c1C(=O)N[C@@H](Cc1ccccc1)C(=O)C(=O)NC(C)C |
